Reference: patent publication US6261760A, “Regulation of the cell cycle by sterols” (priority 1999, dated 2001)
“Also recorded” adds a separate entry of the source. Where two headings read alike, the source gives them in different places.

What was measured:
fibroblast monolayers [1] = experiment: FC efflux from fibroblast monolayers (3H-FC label); format: cell-based, human
Procedure: Fibroblast monolayers were equilibrated with ^3 H-FC-labeled native plasma or with isolated ^3 H-labeled LDL, as specified for each experiment. Following incubation, the dishes were washed with albumin-complete PBS and then (×4) with complete PBS. They were then incubated for 3 min with unlabeled plasma or lipoprotein fractions and the rate of appearance of radioactivity in the medium determined. Samples of medium ([…]) were immediately chilled in ice water and centrifuged (10 min, 2000×g) at 0-2° C. ^3 H-cholesterol radioactivity in the supernatant was either assayed directly, or fractionated by agarose gel electrophoresis. FC efflux was linear as previously reported (Kawano et al., Biochemistry, 32: 5025-5028 (1993)).
For electrophoresis, […] portions of labeled medium were added to strips of 0.75% w/v agarose in 0.025 M barbital buffer (pH 8.6) and separated as previously described (Fielding et al., Biochemistry, 30: 8551-8557 (1991)). 2.5 mm gel fractions were then collected, and radioactivity measured. The location of major lipoprotein classes was determined from strips run simultaneously with whole native plasma equilibrated (60 min, 37° C.) With ^3 HFC.
Rates of FC influx and efflux between medium and fibroblast monolayers preincubated for 24 h with 7-80% native human plasma in DMEM were determined. Cells equilibrated in 80% compared to 7% v/v plasma contained 35-40% more total cholesterol but only 10-15% more FC. In 50% v/v plasma, cholesteryl ester levels were lower than in 80% plasma but FC levels were almost the same. Rates of transfer of FC between the cells and their extracellular medium were determined for each plasma dilution. […] was measured as the rate of transfer of ^3 H-FC radioactivity from labeled native plasma to unlabeled cells. […] was determined as the rate of transfer of radioactivity from uniformly labeled cells to unlabeled native plasma medium.

fibroblast monolayers [2] = experiment: Cellular cholesterol mass (FC, EC, total); format: cell-based, human; conditions: +NEM 2 mM; increase over 120 min, 37° C.
Procedure: The FC and EC mass of cell monolayers was determined before and after incubation with lipoprotein as described above. Portions of the chloroform phase were analyzed for total and free cholesterol. Except where indicated each data point represents the mean of triplicate dishes. The coefficient of variation was <5% of means in these experiments.
120 min. at 37° C. Initial cell FC was […].

[3] = system: LDL FC uptake by fibroblast monolayers; experiment: Transfer of LDL-derived 3H-FC into fibroblast monolayers with metabolic inhibitors (Example 2); format: cell-based, human; conditions: brefeldin A, vinblastine, taxol, nocodazole; NEM 2 mM
[4] = system: intracellular FC transport to the cell surface in fibroblast monolayers; experiment: Transfer of intracellular 3H-FC to the cell surface (cholesterol oxidase); format: cell-based, human; conditions: in words
Procedure: This assay utilized the finding (see Example 1) that only FC in the caveolar fraction of the plasma membrane fraction was modified by cholesterol oxidase in unfixed fibroblast monolayers.
The rate at which intracellular LDL-derived ^3 H-FC became accessible at the cell surface was measured as follows. Cell monolayers were labeled with ^3 H-FC LDL under the conditions shown for each experiment. Unbound and adsorbed LDL were removed as described above. In some experiments metabolic inhibitors of different transport steps were then added for 30 min at 15° C. […] Cholesterol oxidase (Boehringer-Manheim, Indianapolis, Ind., USA) was added in PBS to a final concentration of 1 U ml^-1. Incubation was for 4 h at 0° C. The cells were washed with ice-cold PBS, and extracted with 0.1 N NAOH. Cell total lipid was extracted with chloroform-methanol (1:1 v/v). […] .
Fibroblast monolayers were prelabeled with FC-labeled LDL for 2 min at 31° C. Medium and surface-bound labeled LDL were removed as described above. The cells were incubated with inhibitors of intracellular transport for 30 min at 15° C. Movement of FC label to the cell surface remained negligible (FIG. 11). The cells were brought to 31° C. for 15 min, and then cooled on wet ice. ^3 H-FC transfer to the cell surface (in the presence and absence of inhibitor) was assayed with cholesterol oxidase as described above.

[5] = system: intracellular FC vesicle fractions of fibroblast monolayers; experiment: D2O-Ficoll density gradient fractionation of LDL-derived 3H-FC vesicles; format: cell-based, human; conditions: NEM 2 mM
Procedure: Early endosomal vesicles were labeled with LDL-derived ^3 H-FC by a modification of procedures described by Woodman & Warren (1991) J. Cell Biol., 112:1133-1141. Fibroblast monolayers in 10 cm dishes were washed in ice-cold PBS. The cells were labeled by incubation (2 h, 4° C.) with ^3 H-FC LDL. The monolayers were washed in PBS and brought to 31° C. for 0-15 min. The cells were then quickly chilled on ice, and cold unlabeled LDL was added (15 min, 4° C.) to displace any remaining surface-bound labeled LDL and all subsequent steps were carried out at 0-4° C.
Cells from three 10 cm dishes were used for each gradient. Monolayers were washed with 140 mM sucrose, 0.5 mM MgCl2, 1 mM EGTA, 20 mM 2-[N-morpholino]ethanesulfonic acid (MES), 70 mM potassium acetate, pH 6.6 (`vesicle buffer`) (Woodman & Warren, supra.). […] Fractions (~0.6 ml) were collected dropwise and the distribution of FC label determined. […] Solution density was determined gravimetrically using […] portions of each fraction. […]
The identity of intracellular transport intermediates and the extent of any cross-contamination between fractions was established using specific antibodies to protein markers, labeled ligands of receptor proteins, and assays of enzyme proteins. […] The distribution of antigen between different gradient fractions was determined with a computerized scanner (ImageQuant, Molecular Devices, Sunnyvale, Calif., USA).

vesicular transport = conditions: assays of vesicular transport in vitro; cited from earlier work
[6] = system: LDL FC uptake by fibroblast monolayers; experiment: Effects of metabolic inhibitors on uptake of 3H-cholesterol from LDL (Example 1)
[7] = system: LDL FC uptake by fibroblast monolayers; conditions: in words
caveolin mRNA [8] = conditions: literature; cited from earlier work
[9] = system: human hepatoblastoma (HepG2) cells; conditions: cited from earlier work
fibroblasts = conditions: fibroblast monolayers; cited from earlier work
caveolin promoter = experiment: Luciferase expression driven by caveolin promoter (pGL3); format: cell-based; conditions: Homo sapiens, Skin fibroblast, 3 h; 50 μM cholesterol α-epoxide, 80% v/v plasma; read-out: reduction of luciferase expression
Source text: The pGL3 luciferase vector (Promega, Madison, Wis.) was used for cloning purposes. A 705 bp Bgl II restriction fragment corresponding to -781 to -76 bp (relative to the translational start site) was isolated from the 4 kb genomic fragment described above. This was subcloned into the Bgl II site of the vector. The orientation of the insert was identified by restriction mapping and DNA sequencing.
Mutations of sequences within the promoter were created by deletional mutagenesis on single strand DNA, using the Sculptor mutagenesis kit (Amersham). On the basis of the caveolin gene promoter sequence, three oligonucleotides were designed: i) from -664 to -620 with bases -646 to -637 deleted; ii) from -412 to -363 with bases -395 to -386 deleted; and iii) from -302 to -262 with bases -287 to -278 deleted. These were used to generate the promoter mutants designated Δ1, Δ2 and Δ3 respectively.
Normal skin fibroblasts were plated at a density of 5-8×10^5 cells per 6 cm dish. These cells were transfected with 10 μg per dish of the wild type (705 bp) caveolin promoter fragment subcloned in the forward and reverse orientation in the luciferase expression vector pGL3. […] After 10-20 sec, luciferase activity was determined using an analytical luminometer (Monolight 2010, Analytical Luminescence Laboratories, San Diego, Calif.).

caveolin mRNA [10] = experiment: Caveolin mRNA levels (Northern blot); conditions: 80% v/v plasma + 50 μM cholesterol α-epoxide, 8 h with actinomycin, 37° C.

For `CCN1C(=O)C=CC1=O` [N-ethylmaleimide], the Lipoprotein-resistant label (fibroblast monolayers [1]; +NEM 2 mM, proportion retained after 80% v/v plasma-PBS, 10 min, 37° C.) was 0.24 ± 0.03, the “initial rate of efflux of FC from prelabeled cells to plasma” value (fibroblast monolayers [1]; in words, listed as NEM) was “increased rate of efflux; also recorded: increased several-fold” and the D total cholesterol (fibroblast monolayers [2]) was 0.4 ± 0.2 Fg dish^-1. For the same molecule, the “effect on uptake of 3H-FC from LDL” value [3] was “blocks selective uptake of FC from LDL”, the “effect on transport of intracellular 3H-FC to the cell surface” value [4] was “inhibited the return of FC to the cell surface, but less effectively than did nocodazole” and the “FC label with clathrin at d 1.12 g ml^-1” value [5] was “no peak of FC label was present with clathrin at d 1.12 g ml^-1”. The “concentration for maximal inhibition” value (vesicular transport) was 1 mM, the “inhibition of the uptake of free cholesterol from LDLs” value ([6]; FIG. 8) was greater than 80% and the “time course of inhibition of LDL FC uptake” value ([6]; NEM: first 10-15 min, KNO3: 50 mM, data not shown) was “no effect”. The “time to complete inhibition” value ([6]; cells prelabeled to equilibrium (24 h) with 3H-FC) was no more than 30 min and the “inhibition of the uptake of 3H-FC from LDL” value ([6]; preincubated 30 min with NEM, incubation beyond 10-15 min, FIG. 8) was greater than 80%.

For `CC(=O)[C@H]1CC[C@H]2[C@@H]3CCC4=CC(=O)CC[C@]4(C)[C@H]3CC[C@]12C` [Progesterone], the “effect on LDL FC uptake” value [7] is given as “no effect”, the “effect on caveolin mRNA levels” value (caveolin mRNA [8]) is given as “reduced equilibrium caveolin mRNA levels” and the “effect on transfer of FC from plasma membrane to cell interior” value [9] is given as “promoted the transfer of FC from the plasma membrane to the interior of the cell”. For the same molecule, the “transport of FC between the TGN and cell surface” value (fibroblasts) was “inhibited FC transport between the TGN and cell surface” and the “effect on LDL FC uptake” value ([6]; in words) was “without effect”.

For `CC(C)CCC[C@@H](C)[C@H]1CC[C@H]2[C@@H]3CC4OC45C[C@@H](O)CC[C@]5(C)[C@H]3CC[C@]12C` (stereo partly drawn) [cholesterol α-epoxide], the inhibition at 50 µM (caveolin promoter) was 60% and the “caveolin mRNA level relative to total RNA” value (caveolin mRNA [10]) was 0.47.
